# Data reported in article PMC4209162, “Specific aromatic foldamers potently inhibit spontaneous and seeded Aβ42 and Aβ43 fibril assembly” (Biochemical Journal, 2014).
# pIC50: −log10 of the molar value. Entries after “also recorded” stand apart in the source; their conditions may differ.
# Legend:
# Aβ42 [1] = molecular target: T1, Aβ42 (Homo sapiens, UniProt P05067); experiment: Spontaneous Aβ42 fibrillization (ThT fluorescence, EM); format: biochemical; conditions: for Inhibition of spontaneous Aβ42 fibrillization: Aβ42 5 μM, foldamer 10 μM, 8 h, agitation, ThT fluorescence (EM 4 h); for Inhibition of spontaneous Aβ42 fibrillization / Inhibition of spontaneous Aβ42 fibrillization, different assembly conditions: 25°C; for Inhibition of spontaneous Aβ42 fibrillization, different assembly conditions: Aβ prepared without DMSO, PBE pH 8, Aβ42 5 μM, foldamer 20 μM, 16 h, ThT
# Aβ42 [2] = molecular target: T1, Aβ42; experiment: Seeded Aβ42 fibrillization (ThT fluorescence, EM); format: biochemical; conditions: for Inhibition of seeded Aβ42 fibrillization, different assembly conditions: Aβ prepared without DMSO, PBE pH 8, Aβ42 5 μM plus seed 0.1 μM monomer, 16 h
# Aβ43 [3] = molecular target: T2, Aβ43 (Homo sapiens, UniProt P05067); experiment: Spontaneous Aβ43 fibrillization (ThT fluorescence, EM); format: biochemical; conditions: for Inhibition of spontaneous Aβ43 fibrillization, different assembly conditions: Aβ prepared without DMSO, PBE pH 8, Aβ43 5 μM, foldamer 20 μM, 16 h
# [4] = tested on: SH-SY5Y human neuroblastoma cells; experiment: Toxicity of Aβ43 conformers to SH-SY5Y cells (MTT reduction, LDH release); format: cell-based; conditions: 24 h, MTT and LDH; for Effect on toxicity of Aβ43 conformers after 0.5 h of assembly: Aβ43 5 μM assembled with foldamer 20 μM for 0.5 h; for Effect on toxicity of Aβ43 conformers after 4 h of assembly: Aβ43 5 μM assembled with foldamer 20 μM for 4 h
# Experimental: (§1) SH-SY5Y human neuroblastoma cells were maintained in Dulbecco's modified Eagle's medium (DMEM) plus 10 mM Hepes, 10% FBS, 4 mM glutamine, penicillin (200 units/ml) and streptomycin (200 μg/ml) in 5% CO2 at 37°C. Cells were differentiated in serum-free DMEM with N2 supplement and 10 μM all-trans-retinoic acid before use. Cells were plated at (10000 cells/well) in 96-well plates and grown overnight. Medium was removed and Aβ conformers or controls were added and cells were incubated for 24 h at 37°C. Toxicity was assessed using an MTT kit (Tox-1; Sigma) or via lactate dehydrogenase (LDH) release using the CytoTox-ONE™ kit (Promega). Toxicity values were normalized to the buffer control without Aβ.
# [5] = tested on: SH-SY5Y human neuroblastoma cells; experiment: Toxicity of Aβ42 conformers to SH-SY5Y cells (MTT reduction, LDH release); format: cell-based; conditions: 24 h, MTT and LDH; for Effect on toxicity of Aβ42 conformers after 0.5 h of assembly: Aβ42 5 μM assembled with foldamer 20 μM for 0.5 h; for Effect on toxicity of Aβ42 conformers after 4 h of assembly: Aβ42 5 μM assembled with foldamer 20 μM for 4 h
# Experimental: as §1
# Aβ43 oligomers = Aβ43 oligomers (Homo sapiens, UniProt P05067); experiment: A11-reactive Aβ43 conformers (ELISA); format: biochemical; conditions: Aβ43 5 μM, foldamer 20 μM, 25°C; for Effect on A11-reactive Aβ43 conformers after 0.5 h: 0.5 h (end of lag phase); for Effect on A11-reactive Aβ43 conformers after 4 h: 4 h (endpoint of fibrillization)
# Aβ42 oligomers = Aβ42 oligomers (Homo sapiens, UniProt P05067); experiment: A11-reactive Aβ42 conformers (ELISA); format: biochemical; conditions: Aβ42 5 μM, foldamer 20 μM, 25°C; for Effect on A11-reactive Aβ42 conformers after 0.5 h: 0.5 h (end of lag phase); for Effect on A11-reactive Aβ42 conformers after 4 h: 4 h (endpoint of fibrillization)
# Aβ43 [6] = molecular target: T2, Aβ43; experiment: Seeded Aβ43 fibrillization (ThT fluorescence, EM); format: biochemical; conditions: ThT; for Inhibition of seeded Aβ43 fibrillization, different assembly conditions: Aβ prepared without DMSO, PBE pH 8, Aβ43 5 μM plus seed 0.1 μM monomer, foldamer 20 μM, 16 h
# Aβ42 fibrils = Aβ42 fibrils (Homo sapiens, UniProt P05067); experiment: Disassembly of preformed Aβ42 fibrils; format: biochemical; conditions: foldamer in 4-fold molar excess, 24 h (results not shown)
# FUS = molecular target: T3, FUS (Homo sapiens, UniProt P35637); experiment: FUS aggregation (turbidity, absorbance at 395 nm); format: biochemical; conditions: GST-FUS 5 μM, foldamer 20 μM, plus TEV protease, 25°C, 0–90 min
# T3 sequence (P35637 1-526): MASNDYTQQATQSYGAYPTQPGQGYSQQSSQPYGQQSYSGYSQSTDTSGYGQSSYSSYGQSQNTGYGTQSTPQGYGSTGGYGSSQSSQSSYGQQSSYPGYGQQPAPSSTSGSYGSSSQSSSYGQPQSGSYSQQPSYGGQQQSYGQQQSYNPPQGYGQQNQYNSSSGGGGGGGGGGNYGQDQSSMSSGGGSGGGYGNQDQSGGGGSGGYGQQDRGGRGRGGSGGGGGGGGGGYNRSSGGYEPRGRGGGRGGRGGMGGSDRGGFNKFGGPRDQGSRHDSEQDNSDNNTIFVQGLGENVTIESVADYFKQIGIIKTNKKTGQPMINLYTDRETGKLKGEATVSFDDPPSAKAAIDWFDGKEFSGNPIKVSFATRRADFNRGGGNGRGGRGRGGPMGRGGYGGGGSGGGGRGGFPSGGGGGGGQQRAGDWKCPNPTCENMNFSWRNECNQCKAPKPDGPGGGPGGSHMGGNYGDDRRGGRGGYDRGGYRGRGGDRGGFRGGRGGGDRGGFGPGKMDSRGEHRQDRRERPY
# Experimental: GST–TEV–FUS was purified as described. Aggregation was initiated by addition of tobbaco etch virus (TEV) protease to GST–TEV–FUS (5 μM) plus or minus foldamer (20 μM) in assembly buffer (50 mM Tris/HCl pH 8, 0.2 M trehalose and 20 mM glutathione). Aggregation was for 0–90 min at 25°C without agitation in a 96-well plate and was assessed by turbidity (absorbance at 395 nm) using a Tecan Infinite M1000 plate reader. No aggregation occurred unless TEV protease was added to separate GST from FUS [58].
# T1 sequence (P05067 672-713 limits assumed): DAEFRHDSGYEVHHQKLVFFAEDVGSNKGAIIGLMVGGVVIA
# Sequence of Aβ42 oligomers (P05067 672-713 limits assumed): as above
# T2 sequence (P05067 672-714 limits assumed): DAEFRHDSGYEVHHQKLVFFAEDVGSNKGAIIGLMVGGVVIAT
# Sequence of Aβ43 oligomers (P05067 672-714 limits assumed): as above
# Sequence of Aβ42 fibrils (P05067 672-713 limits assumed): as the sequence (P05067 672-713 limits assumed) above
compound,measurement,setting,value
(Cit-Sal)2-(Arg-Sal)-(Cit-Sal)-CONH2,Inhibition of spontaneous Aβ42 fibrillization,Aβ42 [1],ineffective
(Lys-Sal)2-CONH2,Inhibition of spontaneous Aβ42 fibrillization,Aβ42 [1],failed to inhibit assembly
(Cit-Sal)4-CONH2,Inhibition of spontaneous Aβ42 fibrillization,Aβ42 [1],ineffective
same,"Inhibition of spontaneous Aβ42 fibrillization, different assembly conditions",Aβ42 [1],had no effect
same,"Inhibition of seeded Aβ42 fibrillization, different assembly conditions",Aβ42 [2]; foldamer 20 μM,had no effect
same,"Inhibition of spontaneous Aβ43 fibrillization, different assembly conditions","Aβ43 [3]; 25°C, ThT",had no effect
same,Effect on toxicity of Aβ43 conformers after 0.5 h of assembly,[4],had no effect on toxicity
same,Effect on toxicity of Aβ43 conformers after 4 h of assembly,[4],had no effect on toxicity
same,Effect on toxicity of Aβ42 conformers after 0.5 h of assembly,[5],had no effect on toxicity
same,Effect on toxicity of Aβ42 conformers after 4 h of assembly,[5],had no effect on toxicity
same,Effect on A11-reactive Aβ43 conformers after 0.5 h,Aβ43 oligomers,had no effect
same,Effect on A11-reactive Aβ43 conformers after 4 h,Aβ43 oligomers,had no effect
same,Effect on A11-reactive Aβ42 conformers after 0.5 h,Aβ42 oligomers,had no effect
same,Effect on A11-reactive Aβ42 conformers after 4 h,Aβ42 oligomers,had no effect
same,"Inhibition of seeded Aβ43 fibrillization, different assembly conditions",Aβ43 [6],had no effect
(Lys-Sal)4-CONH2,Inhibition of spontaneous Aβ42 fibrillization,Aβ42 [1],ineffective
Sal-(Lys-Sal)2-CONH2,Inhibition of spontaneous Aβ42 fibrillization,Aβ42 [1],failed to inhibit assembly
(Arg-Sal-Cit-Sal)2-CONH2,Inhibition of spontaneous Aβ42 fibrillization,Aβ42 [1],ineffective
(Arg-Benz)4-CONH2,Disassembly of Aβ42 fibrils,Aβ42 fibrils,did not disassemble Aβ42 fibrils
same,Inhibition of spontaneous Aβ42 fibrillization,Aβ42 [1],strong inhibitors; also recorded: potent inhibitors
same,"Inhibition of spontaneous Aβ42 fibrillization, different assembly conditions",Aβ42 [1],inhibited
same,Extent of seeded Aβ42 fibrillization at 4-fold molar excess of foldamer,"Aβ42 [2]; Aβ42 5 μM plus seed 0.1 μM monomer, foldamer 20 μM",some fibrillization occurred
same,Inhibition of seeded Aβ42 fibrillization,"Aβ42 [2]; Aβ42 5 μM plus seed 0.1 μM monomer, foldamer 5, 10 or 20 μM, 0–2 h, 25°C",only inhibited seeded Aβ42 fibrillization when present at a 4-fold molar excess over Aβ42
same,"Inhibition of seeded Aβ42 fibrillization, different assembly conditions",Aβ42 [2]; foldamer 20 μM,inhibited
same,Major Aβ43 species by EM,"Aβ43 [3]; Aβ43 5 μM, foldamer 10 μM, 4 h, 25°C",small oligomers were the major species
same,Inhibition of spontaneous Aβ43 fibrillization,"Aβ43 [3]; Aβ43 5 μM, foldamer 5, 10 or 20 μM, 0–8 h, 25°C, ThT, EM 10 μM 4 h",blocked spontaneous Aβ43 fibrillization
same,"Inhibition of spontaneous Aβ43 fibrillization, different assembly conditions","Aβ43 [3]; 25°C, ThT",inhibited
same,Effect on toxicity of Aβ43 conformers after 0.5 h of assembly,[4],had no effect
same,Effect on toxicity of Aβ43 conformers after 4 h of assembly,[4],enhanced
same,Inhibition of FUS aggregation,FUS,did not inhibit FUS aggregation
same,Effect on toxicity of Aβ42 conformers after 0.5 h of assembly,[5],had no effect
same,Effect on toxicity of Aβ42 conformers after 4 h of assembly,[5],enhanced
same,Effect on A11-reactive Aβ43 conformers after 0.5 h,Aβ43 oligomers,had no effect
same,Effect on A11-reactive Aβ43 conformers after 4 h,Aβ43 oligomers,had a similar effect
same,Effect on A11-reactive Aβ42 conformers after 0.5 h,Aβ42 oligomers,had no effect
same,Effect on A11-reactive Aβ42 conformers after 4 h,Aβ42 oligomers,remained at higher levels
same,Inhibition of seeded Aβ43 fibrillization,"Aβ43 [6]; Aβ43 5 μM plus seed 0.1 μM monomer, foldamer 5, 10 or 20 μM, 0–2 h, 25°C, EM",blocked seeded Aβ43 fibrillization
same,"Inhibition of seeded Aβ43 fibrillization, different assembly conditions",Aβ43 [6],inhibited
COc1ccc(NC(=O)[C@H](CCCNC(N)=O)NC(=O)c2cc(NC(=O)[C@H](CCCNC(=N)N)NC(=O)c3cc(NC(=O)[C@H](CCCNC(=N)N)NC(=O)c4cc(NC(=O)[C@@H](N)CCCNC(=N)N)ccc4OC)ccc3OC)ccc2OC)cc1C(N)=O [(Arg-Sal)3-(Cit-Sal)-CONH2],pIC50,Aβ42 [1],~5.80
same,pIC50,Aβ43 [3],~5.51
(Lys-Sal)4-COβAla,Inhibition of spontaneous Aβ42 fibrillization,Aβ42 [1],ineffective
